Laboratory results from patent US10597388B2, “Pyridazinone herbicides” (FMC CORPORATION, priority 2014, dated 2020).
Like-named read-outs stand apart in the source and are kept apart here.

Columns and labels:
Format in all cases: in vivo
[1] = tested on: galium (catchweed bedstraw, Galium aparine); experiment: Test A greenhouse herbicide test, postemergence; details: Galium, post-emergence, 240 h; for pest or weed control at 125 g/ha: 125 g ai/ha, visual rating after approx. 10 d, 0 to 100 scale (0 no effect, 100 complete control), read-out: Plant response rating, Galium; for pest or weed control at 500 g/ha: 500 g ai/ha, 0 to 100 scale, 0 is no effect, 100 is complete control, read-out: Galium plant response rating
How it was run: (§1)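 Plants grown in loam soil/sand blend pots were treated postemergence at 2 to 10 cm height, one- to two-leaf stage, with formulated test chemicals. After approximately 10 d in a greenhouse, injury was rated visually against untreated controls on a 0 to 100 scale (0 no effect, 100 complete control).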

[2] = tested on: blackgrass (Alopecurus myosuroides); experiment: Test A greenhouse herbicide test, postemergence; details: Alopecurus myosuroides, post-emergence, 240 h; for pest or weed control at 125 g/ha: 125 g ai/ha, visual rating after approx. 10 d, 0 to 100 scale (0 no effect, 100 complete control), read-out: Plant response rating, Blackgrass; for pest or weed control at 500 g/ha: 500 g ai/ha, 0 to 100 scale, 0 is no effect, 100 is complete control, read-out: Blackgrass plant response rating
How it was run: as §1

[3] = tested on: barnyardgrass (Echinochloa crus-galli); experiment: Test A greenhouse herbicide test, pre- and postemergence; details: Echinochloa crus-galli, 240 h; for pest or weed control at 125 g/ha: 125 g ai/ha; for pest or weed control at 500 g/ha: 500 g ai/ha, 0 to 100 scale
How it was run: (§2)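 Seeds sown in loam–sand blend got a preemergence directed soil spray of compound in non-phytotoxic solvent with surfactant. Postemergence treatment was given at 2–10 cm, one- to two-leaf stage. After ~10 d in greenhouse, injury was rated visually vs untreated controls, 0 (no effect) to 100 (complete control).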

[4] = tested on: wheat (Triticum aestivum); experiment: as above; details: Triticum aestivum, post-emergence, 240 h, Postemergence; for plant injury at 125 g/ha: 125 g ai/ha, visual rating after approx. 10 d, 0 to 100 scale (0 no effect, 100 complete control), read-out: Plant response rating, Wheat; for plant injury at 500 g/ha: 500 g ai/ha, 0 to 100 scale, 0 is no effect, 100 is complete control, read-out: Wheat plant response rating
How it was run: as §2

kochia (Kochia scoparia) = experiment: as above; details: Bassia scoparia, 240 h; for pest or weed control at 125 g/ha: 125 g ai/ha; for pest or weed control at 500 g/ha: 500 g ai/ha, 0 to 100 scale
How it was run: as §2

[5] = tested on: pigweed (Amaranthus retroflexus); experiment: as above; details: Amaranthus retroflexus, 240 h; for pest or weed control at 125 g/ha: 125 g ai/ha; for pest or weed control at 500 g/ha: 500 g ai/ha, 0 to 100 scale
How it was run: as §2

[6] = tested on: ryegrass, Italian (Italian ryegrass, Lolium multiflorum); experiment: as above; details: Lolium multiflorum, 240 h; for pest or weed control at 125 g/ha: 125 g ai/ha; for pest or weed control at 500 g/ha: 500 g ai/ha, 0 to 100 scale
How it was run: as §2

[7] = tested on: foxtail, giant (giant foxtail, Setaria faberii); experiment: as above; details: Setaria faberi, 240 h; for pest or weed control at 125 g/ha: 125 g ai/ha; for pest or weed control at 500 g/ha: 500 g ai/ha, 0 to 100 scale
How it was run: as §2

corn (Zea mays) = experiment: as above; details: Zea mays, post-emergence, 240 h, Postemergence; for Corn plant response rating (crop injury, 0 = no effect, 100 = complete kill) at 125 g/ha: 125 g ai/ha, visual rating after approx. 10 d, 0 to 100 scale (0 no effect, 100 complete control); for plant injury at 500 g/ha: 500 g ai/ha, 0 to 100 scale, 0 is no effect, 100 is complete control, read-out: Corn plant response rating
How it was run: as §2

[8] = tested on: ragweed (common ragweed, Ambrosia elatior); experiment: as above; details: Ambrosia artemisiifolia, 240 h; for pest or weed control at 125 g/ha: 125 g ai/ha; for pest or weed control at 500 g/ha: 500 g ai/ha, 0 to 100 scale
How it was run: as §2

[9] = post-emergence, Postemergence, visual rating after approx. 10 d, 0 to 100 scale (0 no effect, 100 complete control), read-out: Plant response rating, Barnyardgrass
[10] = post-emergence, Postemergence, 0 is no effect, 100 is complete control, read-out: Barnyardgrass plant response rating
[11] = pre-emergence, Preemergence, 0 to 100 scale where 0 is no effect and 100 is complete control, read-out: Barnyardgrass plant response rating
[12] = pre-emergence, Preemergence, 0 no effect, 100 complete control, read-out: Plant response rating, Barnyardgrass
[13] = post-emergence, Postemergence, visual rating after approx. 10 d, 0 to 100 scale (0 no effect, 100 complete control), read-out: Plant response rating, Kochia
[14] = post-emergence, Postemergence, 0 is no effect, 100 is complete control, read-out: Kochia plant response rating
[15] = pre-emergence, Preemergence, 0 to 100 scale where 0 is no effect and 100 is complete control, read-out: Kochia plant response rating
[16] = pre-emergence, Preemergence, 0 no effect, 100 complete control, read-out: Plant response rating, Kochia
[17] = post-emergence, Postemergence, visual rating after approx. 10 d, 0 to 100 scale (0 no effect, 100 complete control), read-out: Plant response rating, Pigweed
[18] = post-emergence, Postemergence, 0 is no effect, 100 is complete control, read-out: Pigweed plant response rating
[19] = pre-emergence, Preemergence, 0 to 100 scale where 0 is no effect and 100 is complete control, read-out: Pigweed plant response rating
[20] = pre-emergence, Preemergence, 0 no effect, 100 complete control, read-out: Plant response rating, Pigweed
[21] = post-emergence, Postemergence, visual rating after approx. 10 d, 0 to 100 scale (0 no effect, 100 complete control), read-out: Plant response rating, Ryegrass, Italian
[22] = post-emergence, Postemergence, 0 is no effect, 100 is complete control, read-out: Ryegrass, Italian plant response rating
[23] = pre-emergence, Preemergence, 0 to 100 scale where 0 is no effect and 100 is complete control, read-out: Ryegrass, Italian plant response rating
[24] = pre-emergence, Preemergence, 0 no effect, 100 complete control, read-out: Plant response rating, Ryegrass, Italian
[25] = post-emergence, Postemergence, visual rating after approx. 10 d, 0 to 100 scale (0 no effect, 100 complete control), read-out: Plant response rating, Foxtail, Giant
[26] = post-emergence, Postemergence, 0 is no effect, 100 is complete control, read-out: Foxtail, Giant plant response rating
[27] = pre-emergence, Preemergence, 0 to 100 scale where 0 is no effect and 100 is complete control, read-out: Foxtail, Giant plant response rating
[28] = pre-emergence, Preemergence, 0 no effect, 100 complete control, read-out: Plant response rating, Foxtail, Giant
[29] = post-emergence, Postemergence, visual rating after approx. 10 d, 0 to 100 scale (0 no effect, 100 complete control), read-out: Plant response rating, Ragweed
[30] = post-emergence, Postemergence, 0 is no effect, 100 is complete control, read-out: Ragweed plant response rating
[31] = pre-emergence, Preemergence, 0 to 100 scale where 0 is no effect and 100 is complete control, read-out: Ragweed plant response rating
[32] = pre-emergence, Preemergence, 0 no effect, 100 complete control, read-out: Plant response rating, Ragweed

Structure (SMILES)	pest or weed control at 125 g/ha [1] [%]	pest or weed control at 500 g/ha [1] [%]	pest or weed control at 125 g/ha [2] [%]	pest or weed control at 500 g/ha [2] [%]	pest or weed control at 125 g/ha [3, 9] [%]	pest or weed control at 500 g/ha [3, 10] [%]	pest or weed control at 125 g/ha [3, 11] [%]	pest or weed control at 500 g/ha [3, 12] [%]	plant injury at 125 g/ha [4] [%]	plant injury at 500 g/ha [4] [%]	pest or weed control at 125 g/ha (kochia (Kochia scoparia); [13]) [%]	pest or weed control at 500 g/ha (kochia (Kochia scoparia); [14]) [%]	pest or weed control at 125 g/ha (kochia (Kochia scoparia); [15]) [%]	pest or weed control at 500 g/ha (kochia (Kochia scoparia); [16]) [%]	pest or weed control at 125 g/ha [5, 17] [%]	pest or weed control at 500 g/ha [5, 18] [%]	pest or weed control at 125 g/ha [5, 19] [%]	pest or weed control at 500 g/ha [5, 20] [%]	pest or weed control at 125 g/ha [6, 21] [%]	pest or weed control at 500 g/ha [6, 22] [%]	also measured
CCc1sc2cc(C)cc(C)c2c1-c1c(O)c(C)nn(C)c1=O [Compound 19, 4-(2-ethyl-4,6-dimethylbenzo[b]thien-3-yl)-5-hydroxy-2,6-dimethyl-3(2H)-pyridazinone]	30	80	0	0	20	80	30	90	0	0	0	0	0	0	0	0	0	0	0	0	pest or weed control at 125 g/ha [6, 23]: 0%; pest or weed control at 500 g/ha [6, 24]: 0%; pest or weed control at 125 g/ha [7, 25]: 20%; pest or weed control at 500 g/ha [7, 26]: 60%; pest or weed control at 125 g/ha [7, 27]: 0%; pest or weed control at 500 g/ha [7, 28]: 0%; Corn plant response rating (crop injury, 0 = no effect, 100 = complete kill) at 125 g/ha (corn (Zea mays)): 0%; plant injury at 500 g/ha (corn (Zea mays)): 0%; pest or weed control at 125 g/ha [8, 29]: 0%; pest or weed control at 500 g/ha [8, 30]: 0%; pest or weed control at 125 g/ha [8, 31]: 0%; pest or weed control at 500 g/ha [8, 32]: 20%
CC(=O)Oc1c(C)nn(C)c(=O)c1-c1c(C)oc2c(C)cccc12 [Compound 15, 5-(acetyloxy)-4-(2,7-dimethyl-3-benzofuranyl)-2,6-dimethyl-3(2H)-pyridazinone]	70	90	0	50	70	90	20	90	0	0	50	50	0	0	0	0	0	0	50	90	pest or weed control at 125 g/ha [6, 23]: 50%; pest or weed control at 500 g/ha [6, 24]: 100%; pest or weed control at 125 g/ha [7, 25]: 70%; pest or weed control at 500 g/ha [7, 26]: 90%; pest or weed control at 125 g/ha [7, 27]: 10%; pest or weed control at 500 g/ha [7, 28]: 70%; Corn plant response rating (crop injury, 0 = no effect, 100 = complete kill) at 125 g/ha (corn (Zea mays)): 0%; plant injury at 500 g/ha (corn (Zea mays)): 20%; pest or weed control at 125 g/ha [8, 29]: 50%; pest or weed control at 500 g/ha [8, 30]: 50%; pest or weed control at 125 g/ha [8, 31]: 0%; pest or weed control at 500 g/ha [8, 32]: 30%
Cc1cc(C)c2oc(C)c(-c3c(O)c(C)nn(C)c3=O)c2c1 [Compound 12, 5-hydroxy-2,6-dimethyl-4-(2,5,7-trimethyl-3-benzofuranyl)-3(2H)-pyridazinone]	60	90	20	50	0	40	20	80	0	0	0	60	0	10	30	50	10	60	60	70	pest or weed control at 125 g/ha [6, 23]: 20%; pest or weed control at 500 g/ha [6, 24]: 50%; pest or weed control at 125 g/ha [7, 25]: 10%; pest or weed control at 500 g/ha [7, 26]: 70%; pest or weed control at 125 g/ha [7, 27]: 20%; pest or weed control at 500 g/ha [7, 28]: 90%; Corn plant response rating (crop injury, 0 = no effect, 100 = complete kill) at 125 g/ha (corn (Zea mays)): 0%; plant injury at 500 g/ha (corn (Zea mays)): 0%; pest or weed control at 125 g/ha [8, 29]: 10%; pest or weed control at 500 g/ha [8, 30]: 70%; pest or weed control at 125 g/ha [8, 31]: 0%; pest or weed control at 500 g/ha [8, 32]: 30%
